Assays:
[1] = test system: TPA-induced ear edema; assay: TPA-induced ear edema model; type: in vivo, mouse; conditions: 0.3% single topical, TPA 0.01%, ear thickness 6 hours after TPA
Procedure: Experiment: Three representative compounds, 5-(2-phenylethenyl)-2-1-propyl-1,3-benzenediol, as previously reported, a closely related stilbene derivative (WO 0142231) and compound 39B, a novel compound of the current invention, were assayed against the edema on female mice (Balb/c) aged 10-12 weeks, using 0.01% Calcitriol (a commercial standard) as a positive control. Phorbol-12-myristate-13-acetate (TPA) was used as the edema inducer. TPA and the test compounds were all dissolved in 100% ethanol and 20 μl applied on the right ear of the mouse with six mice per group. The TPA concentration used was 0.01% (w/v). Ear thickness was measured 6 hours after TPA treatment to determine if edema was decreased. In each experiment replicated groups of TPA treated mice were treated with either 5-(2-phenylethenyl)-2-1-propyl-1,3-benzenediol, Calcitriol, compound 39B or only ethanol, and the level of inhibition was obtained by measuring the thickness of the ear and expressing the difference in thickness of the treated ear from that of the ethanol treated ear, as a percentage.

[2] = test system: acute colon inflammation induced by 5% DSS; assay: DSS (5%) acute colon inflammation mouse model, therapeutic experiment; type: in vivo; conditions: for Bleeding score / Diarrheal score: day seven, mean ± SEM, n = 9, 1 = normal; for Bleeding score: 2 = bloody stool, 4 = gross bleeding; for Diarrheal score: 2 = loose stools, 4 = diarrhea
Source text: To assess the in vivo efficacy for preventive and therapeutic activities of these compounds on IBD, two experiments were designed and tested using the dextran sulfate sodium (DSS) experimental mouse model for human IBD.
For the therapeutic experiment a further experiment was done to test different doses of 9A on severe, acute intestinal inflammation in mice induced by a high dose of DSS (5%). In this experiment, drug treatment started from day 3 post DSS induction when disease symptom was established. 9A (200 mg/kg or 100 mg/kg) was administered through oral […] once daily and a commercial drug, sulfasalazine (SASP, 100 mg/kg/day) was used as positive control. Experiment was terminated at day 7 and the efficacy was assessed.

[3] = test system: DSS-induced IBD; assay: DSS (2%) IBD mouse model, preventive experiment; type: in vivo; conditions: 500 mg/kg/day oral with 2% DSS, day 7
Procedure: To assess the in vivo efficacy for preventive and therapeutic activities of these compounds on IBD, two experiments were designed and tested using the dextran sulfate sodium (DSS) experimental mouse model for human IBD. For the preventive experiment, compounds 9A and 39B were simultaneously administrated orally with 2% DSS at the dose of 500 mg/kg/day. Vehicle alone and glucocorticoid (dexamethasone 20 mg/kg/day) were used as controls. At day 7, mice were sacrificed, examined for stool appearance, diarrhea and colon macroscopic damage including ulceration, inflammation and adhesion. Colon samples were also taken and fixed in 10% formalin for histological assessment of architecture, ulceration, inflammation and serosal damage.

[4] = test system: eczema; assay: 1% cream on volunteer with eczema; type: in vivo, human; conditions: topical, right side, control triamcinolone acetonide 0.5% left side
[5] = test system: psoriasis; assay: 1% cream on volunteers with psoriasis; type: in vivo, human; conditions: topical, once per day, vs control cream
Procedure: The biological activity of the compounds of this invention can be determined by measurement of the effect of the test compound in vivo because there is no animal model suitable for the diseases. The compounds were tested on volunteers. In these tests, representative compound of this invention, i.e., 3,5-dihydroxy-4-isopropylstilbene is active in reducing or eliminating symptoms of psoriasis and eczema.
A 1% cream of 3,5-dihydroxy-4-isopropylstilbene was prepared for tests on volunteers. Three volunteers, each with a long psoriasis history, were recruited for the tests. Neither of them was on any medication a month before the initiation of the test.
Volunteer 1, person, with scalp psoriasis for more than 15 years. They had used various conventional drugs and treatments, include, steroids, phototherapy and other medicine during the course of their illness. All of these treatments had no or very limited effect on this psoriasis.
Volunteer 2, person, with plaques on their back. They had used hydrocortisone before and stopped using it because of side effects.
The volunteers were treated once per day by applying the creams once per day on top of the affected area with the basic cream as the control (except for volunteer 3). […] The cream of the invention contained 1% 3,5-dihydroxy-4-isopropylstilbene. The control cream was identical except that it contained no 3,5-dihydroxy-4-isopropylstilbene. […]

In the case of CC(C)c1c(O)cc(/C=C/c2ccccc2)cc1O [Compound 9A, 3,5-Dihydroxy-4-isopropyl-trans-stilbene], the “% edema inhibition” value [1] is reported as 8%, the Bleeding score ([2]; 100 mg/kg oral daily) is reported as 3.3 ± 0.37 and the Diarrheal score ([2]; 100 mg/kg oral daily) is reported as 2.0 ± 0.73. The Bleeding score ([2]; 200 mg/kg oral daily) was 3.2 ± 0.49, the Diarrheal score ([2]; 200 mg/kg oral daily) was 2.4 ± 0.45 and the “survival rate vs control treatment” value ([2]; 5% DSS, treatment from day 3) was “significantly higher survival rate”. For the same compound, the survival rate ([2]; daily oral treatment from day 3 post 5% DSS, vehicle control 33%) was 67%, the “macroscopic and microscopic diseases scores” value [3] was “significantly decreased” and the “effect on eczema, volunteer 3” value [4] was “disease symptoms completely disappeared by week 2”. The “effect on psoriasis, volunteer 1 (scalp psoriasis)” value [5] was “completely clearance in 7 days” and the “effect on psoriasis, volunteer 2 (plaques on back)” value [5] was “significant improvement of the psoriasis”.

Source: patent US7868047B2, “Anti-inflammatory and psoriasis treatment and protein kinase inhibition by hydroxy stilbenes and novel stilbene derivatives and analogues” (Welichem Biotech Inc., priority 1999, dated 2011)
